# Experimental data reported in article PMC9268446 (Molecules, 2022).
# Columns and labels:
# SARS-CoV M^pro = SARS-CoV M^pro (Severe acute respiratory syndrome coronavirus, UniProt P0C6X7); format: biochemical
# SARS-CoV-2 M^pro = SARS-CoV-2 M^pro (Severe acute respiratory syndrome coronavirus 2, UniProt P0DTD1); assay: FRET assay, inhibition of recombinant SARS-CoV-2 Mpro (optimized conditions); format: biochemical; conditions: FRET substrate Dabcyl-KTSAVLQ↓SGFRKM-E(Edans)-NH2, 50 nM enzyme, pH 7.0, 37 °C, 10 min preincubation
# HCoV-NL63 M^pro = HCoV-NL63 M^pro (Human coronavirus NL63, UniProt P0C6X5); assay: biochemical
# EV-A71 3C^pro = EV-A71 3C^pro (Human enterovirus 71, UniProt Q66478); assay: FRET assay, inhibition of enterovirus A71 3C protease; format: biochemical
# Description: (§1) We had previously shown that enterovirus 3C proteases have a substrate-binding site featuring some similarities with coronavirus main proteases, although their S2 subsite tends to be more open. Leucine is the ideal P2-amino-acid residue in M^pro substrates, whereas most 3C^pros favor Phe in this position.
# (§2) Assay samples contained 59 µL of reaction buffer (20 mM HEPES, 120 mM NaCl, 0.4 mM EDTA, 20% glycerol, 4 mM DTT (freshly added before the measurements), pH 7.0, 10 µL enzyme solution (final concentration of Coxsackievirus B3 3C^pro or enterovirus A71 3C^pro: 1.0 µM).
# (§3) All reactions were monitored at 37 °C for 15 min. Measurements of enzymatic activity were performed in triplicate and the value was presented as mean ± standard deviation (SD). The initial velocity of the enzymatic reaction with compounds was calculated by linear regression for the first minute of the progression curve. […] V0 is the velocity obtained for the DMSO control (inhibitor concentration of 0 µM).
# (§4) […] of inhibitors (dose-response-inhibition). The IC50 values were calculated by non-linear regression (Curve fit: Y: Bottom + (Top-Bottom)/(1 + 10^ ((X-lg IC50))) using GraphPad Prism 9.0.
# CVB3 3C^pro = CVB3 3C^pro (Coxsackievirus B3, UniProt P03313); assay: FRET assay, inhibition of Coxsackievirus B3 3C protease; format: biochemical
# Description: as §1, §2, §3, §4
# [1] = inhibitor concentration not given, data not shown
# Chain of EV-A71 3C^pro (Q66478 1549-1731): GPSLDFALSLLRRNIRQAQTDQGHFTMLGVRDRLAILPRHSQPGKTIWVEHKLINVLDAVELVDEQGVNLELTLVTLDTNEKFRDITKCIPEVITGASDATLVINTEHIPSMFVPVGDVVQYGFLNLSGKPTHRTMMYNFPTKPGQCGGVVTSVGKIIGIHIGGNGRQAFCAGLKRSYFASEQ
# Chain of CVB3 3C^pro (P03313 1541-1723): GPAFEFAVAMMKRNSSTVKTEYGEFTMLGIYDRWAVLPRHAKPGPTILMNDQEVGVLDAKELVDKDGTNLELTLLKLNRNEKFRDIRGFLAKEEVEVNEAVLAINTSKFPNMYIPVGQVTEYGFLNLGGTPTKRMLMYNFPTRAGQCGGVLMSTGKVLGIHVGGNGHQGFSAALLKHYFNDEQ
# Chain of HCoV-NL63 M^pro (P0C6X5 2940-3242): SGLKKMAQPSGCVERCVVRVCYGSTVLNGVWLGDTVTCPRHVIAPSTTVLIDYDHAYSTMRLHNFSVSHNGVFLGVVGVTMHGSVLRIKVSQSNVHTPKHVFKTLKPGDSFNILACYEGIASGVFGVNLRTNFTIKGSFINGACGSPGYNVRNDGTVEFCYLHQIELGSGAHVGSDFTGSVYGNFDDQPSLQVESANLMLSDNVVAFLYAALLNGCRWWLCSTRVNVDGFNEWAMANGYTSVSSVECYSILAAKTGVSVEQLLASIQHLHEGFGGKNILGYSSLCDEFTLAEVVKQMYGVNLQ
smiles,measurement,setting,value
CC1(C)C2CN(C(=O)C=Cc3ccccc3)C(C(=O)NC(CC3CCNC3=O)C(=O)C(=O)NCc3ccccc3)C21 (centres unmarked) [XDL2a],Activity in SARS-CoV M^pro assay,SARS-CoV M^pro,completely inactive
"CNC(=O)C(=O)[C@H](C[C@@H]1CCNC1=O)NC(=O)[C@@H]1[C@@H]2[C@H](CN1C(=O)[C@@H](NC(=O)NC(C)(C)C)C(C)(C)C)C2(C)C [MG-131, (1R,2S,5S)-3-((S)-2-(3-tert-Butylureido)-3,3-dimethylbutanoyl) -6,6-dimethyl-N-((S)-4-(methylamino)-3,4-dioxo-1-((S)-2-oxopyrrolidin-3-yl)butan-2-yl)-3-azabicyclo[3.1.0]hexane-2-carboxamide]",IC50,SARS-CoV-2 M^pro,14 ± 3 nM
"CC(C)(C)NC(=O)NC(C(=O)N1CC2C(C1C(=O)NC(CC1CCNC1=O)C(=O)C(N)=O)C2(C)C)C(C)(C)C [MG-78, (1R,2S,5S)-N-((S)-4-Amino-3,4-dioxo-1-((S)-2-oxopyrrolidin-3-yl)butan2-yl)-3-((S)-2-(3-tert-butylureido)-3,3-dimethylbutanoyl)-6,6-dimethyl-3-azabicylo[3.1.0]hexane-2-carboxamide]",Factor by which IC50 versus HCoV-NL63 M^pro is larger than that for SARS-CoV-2 M^pro,HCoV-NL63 M^pro,25
same,IC50,HCoV-NL63 M^pro,330 nM
same,IC50,"EV-A71 3C^pro; 10 µM FRET substrate Dabcyl-KEALFQ↓GPPQFE(-Edans)-NH2, 1.0 µM enzyme, 37 °C, read-out: IC50 against EV-A71 3C^pro",6700 nM
same,IC50,"CVB3 3C^pro; 10 µM FRET substrate Dabcyl-KEALFQ↓GPPQFE(-Edans)-NH2, 1.0 µM enzyme, 37 °C, read-out: IC50 against CVB3 3C^pro",1450 nM
"CC(C)(C)[C@H](NC(=O)C(F)(F)F)C(=O)N1C[C@H]2[C@@H]([C@H]1C(=O)N[C@H](C#N)C[C@@H]1CCNC1=O)C2(C)C [nirmatrelvir, reference compound]",Inhibition rate against the 3C protease of EV-A71,EV-A71 3C^pro; [1],33%
same,Inhibition rate against the 3C protease of CVB3,CVB3 3C^pro; [1],55%
